The text below walks through data of ChEMBL document CHEMBL1135157, “Focused library approach for identification of new N-acylphenylalanines as VCAM/VLA-4 antagonists” (Bioorg Med Chem Lett, 2002).

The structures appear in SMILES notation. pIC50: −log10 of the molar value.

Test [1] in a line: Inhibition of Very late antigen 4/vascular cell adhesion molecule 1 activity in ELISA assay, at 10 nM concentration.
Test [2] can be described thus: Inhibition of Very late antigen 4/vascular cell adhesion molecule 1 inhibition activity in an ELISA assay. Background: In an ELISA, binding on a coated surface is turned into a signal by an enzyme label.
The target of the next test is Integrin alpha-4/beta-1 (Homo sapiens, UniProt P05556+P13612). Description: Inhibition of Very late antigen 4 of Ramos cell adhesion to vascular cell adhesion molecule 1. The class given is cell-based.
Chain of Integrin alpha-4/beta-1 (P05556 whole entry): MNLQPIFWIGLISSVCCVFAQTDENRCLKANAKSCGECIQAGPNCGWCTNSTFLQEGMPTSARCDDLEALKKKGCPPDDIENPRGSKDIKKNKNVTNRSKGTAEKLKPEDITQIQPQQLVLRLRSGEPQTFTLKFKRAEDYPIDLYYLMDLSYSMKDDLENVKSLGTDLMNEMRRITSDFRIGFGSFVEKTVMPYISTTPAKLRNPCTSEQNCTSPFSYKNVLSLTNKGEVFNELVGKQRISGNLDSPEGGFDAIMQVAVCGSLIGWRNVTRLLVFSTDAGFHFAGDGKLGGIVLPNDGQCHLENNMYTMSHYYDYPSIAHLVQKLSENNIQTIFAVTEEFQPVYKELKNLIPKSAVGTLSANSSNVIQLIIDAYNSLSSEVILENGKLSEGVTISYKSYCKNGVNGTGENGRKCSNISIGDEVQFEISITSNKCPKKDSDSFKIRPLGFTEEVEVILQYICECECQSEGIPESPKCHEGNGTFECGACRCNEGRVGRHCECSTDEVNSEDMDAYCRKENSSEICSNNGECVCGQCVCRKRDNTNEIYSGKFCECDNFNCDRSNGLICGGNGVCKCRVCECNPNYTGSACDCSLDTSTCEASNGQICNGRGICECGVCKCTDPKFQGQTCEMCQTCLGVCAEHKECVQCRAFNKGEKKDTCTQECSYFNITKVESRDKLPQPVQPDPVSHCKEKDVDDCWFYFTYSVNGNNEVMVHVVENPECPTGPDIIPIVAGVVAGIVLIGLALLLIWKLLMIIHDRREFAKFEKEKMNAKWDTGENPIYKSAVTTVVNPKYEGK
Chain of Integrin alpha-4/beta-1 (P13612 whole entry): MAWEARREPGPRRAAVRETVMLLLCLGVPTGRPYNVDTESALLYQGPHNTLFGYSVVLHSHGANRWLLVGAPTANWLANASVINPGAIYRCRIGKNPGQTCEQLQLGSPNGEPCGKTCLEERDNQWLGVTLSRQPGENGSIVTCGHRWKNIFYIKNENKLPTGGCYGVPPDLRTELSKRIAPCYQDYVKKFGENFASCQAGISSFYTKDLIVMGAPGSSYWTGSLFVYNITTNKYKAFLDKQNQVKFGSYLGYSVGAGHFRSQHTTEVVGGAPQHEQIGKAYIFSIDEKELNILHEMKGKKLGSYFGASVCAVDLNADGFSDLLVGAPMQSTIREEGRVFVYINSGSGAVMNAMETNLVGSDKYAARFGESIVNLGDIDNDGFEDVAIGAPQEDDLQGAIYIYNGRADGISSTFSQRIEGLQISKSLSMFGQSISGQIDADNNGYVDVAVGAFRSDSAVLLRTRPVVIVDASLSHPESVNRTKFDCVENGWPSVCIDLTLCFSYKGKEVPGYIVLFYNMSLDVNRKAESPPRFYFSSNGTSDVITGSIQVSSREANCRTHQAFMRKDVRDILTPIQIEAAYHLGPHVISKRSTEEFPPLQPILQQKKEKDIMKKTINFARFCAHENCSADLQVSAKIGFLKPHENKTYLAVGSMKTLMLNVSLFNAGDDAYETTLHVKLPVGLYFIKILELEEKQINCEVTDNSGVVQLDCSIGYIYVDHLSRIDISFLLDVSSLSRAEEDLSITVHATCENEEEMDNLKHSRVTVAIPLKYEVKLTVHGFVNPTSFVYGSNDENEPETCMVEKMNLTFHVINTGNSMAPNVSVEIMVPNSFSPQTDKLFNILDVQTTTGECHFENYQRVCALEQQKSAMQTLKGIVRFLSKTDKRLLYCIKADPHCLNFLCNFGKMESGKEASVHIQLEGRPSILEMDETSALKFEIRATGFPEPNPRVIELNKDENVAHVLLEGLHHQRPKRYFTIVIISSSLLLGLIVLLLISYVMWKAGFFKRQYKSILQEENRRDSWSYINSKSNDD

As for `O=C(N[C@@H](Cc1ccc(NC(=O)c2ccnc3ccccc23)cc1)C(=O)O)c1ccccc1Cl`, the inhibition in test [1] amounted to 68%. The pIC50 in test [2] is 8.54.
`CC(=O)N1CSC[C@H]1C(=O)N[C@@H](Cc1ccc(NC(=O)c2ccnc3ccccc23)cc1)C(=O)O`: in test [1], the inhibition worked out at 37%.
In turn, `O=C(N[C@@H](Cc1ccc(NC(=O)c2ccnc3ccccc23)cc1)C(=O)O)c1ccccc1Br` showed an inhibition in test [1] of 81%. Further, the negative logarithm of the IC50 (pIC50) in test [2] is 8.66.
For the molecule `O=C(Nc1ccc(C[C@H](NC(=O)C2(c3ccccc3)CCCC2)C(=O)O)cc1)c1ccnc2ccccc12` (stereo in doubt; 56), the pIC50 at Integrin alpha-4/beta-1 was 6.23; in test [2], 8.57.
For `N#CC1(C(=O)N[C@@H](Cc2ccc(NC(=O)c3ccnc4ccccc34)cc2)C(=O)O)CCCC1`, the inhibition in test [1] worked out at 64%. The molecule further had a pIC50 in test [2] of 8.12.
As for `Cc1cccc(C)c1C(=O)N[C@@H](Cc1ccc(NC(=O)c2ccnc3ccccc23)cc1)C(=O)O`, the inhibition in test [1] worked out at 74%. Also, the pIC50 in test [2] is 8.60.
The molecule `O=C(N[C@@H](Cc1ccc(NC(=O)c2ccnc3ccccc23)cc1)C(=O)O)c1ccccc1` had an inhibition in test [1] of 19%.
`CC1(C(=O)N[C@@H](Cc2ccc(NC(=O)c3ccnc4ccccc34)cc2)C(=O)O)CC1(Cl)Cl` (some centres undefined) returned an inhibition in test [1] of 69%. In test [2], this molecule had a pIC50 of 8.52.
Turning to `O=C(Nc1ccc(C[C@H](NC(=O)[C@@H]2CSCN2C(=O)c2ccccc2)C(=O)O)cc1)c1ccnc2ccccc12`, in test [1], the inhibition stood at 24%.
In the case of `O=C(Nc1ccc(C[C@H](NC(=O)C2(c3ccccc3)CCCC2)C(=O)O)cc1)c1c(Cl)cccc1Cl`, the figures for the negative-log IC50 (pIC50) (on Integrin alpha-4/beta-1; in test [2]) were 7.01 and 8.77, respectively.
Consider `CC1(C(=O)N[C@@H](Cc2ccc(NC(=O)c3ccnc4ccccc34)cc2)C(=O)O)CCCCC1`, for which the inhibition in test [1] amounted to 49%. For the same molecule, in test [2], the pIC50 is 8.15.
The molecule `O=C(Nc1ccc(C[C@H](NC(=O)C2CCCC2)C(=O)O)cc1)c1ccnc2ccccc12` came in with an inhibition in test [1] of 25%.
Turning to `O=C(Nc1ccc(C[C@H](NC(=O)[C@@H]2CCCN2C(=O)c2ccccc2)C(=O)O)cc1)c1ccnc2ccccc12`, the inhibition in test [1] worked out at 18%.
`O=C(Nc1ccc(C[C@H](NC(=O)C2CCCCC2)C(=O)O)cc1)c1ccnc2ccccc12` registered an inhibition in test [1] of 37%.
For `O=C(N[C@@H](Cc1ccc(NC(=O)c2ccnc3ccccc23)cc1)C(=O)O)c1ccccc1[N+](=O)[O-]`, in test [1], the inhibition is 73%. The pIC50 in test [2] is 8.33.
In the case of `O=C(Nc1ccc(C[C@H](NC(=O)C2CCc3ccccc3C2)C(=O)O)cc1)c1ccnc2ccccc12` (some centres undefined), the inhibition in test [1] came out at 15%.
For `CCCCC(C)(CC)C(=O)N[C@@H](Cc1ccc(NC(=O)c2ccnc3ccccc23)cc1)C(=O)O` (some centres undefined), in test [1], the inhibition worked out at 49%. The same molecule showed a negative-log IC50 (pIC50) in test [2] of 8.09.
For `CC(=O)N1CCC[C@H]1C(=O)N[C@@H](Cc1ccc(NC(=O)c2ccnc3ccccc23)cc1)C(=O)O`, in that order: 61% and 8.70.
For `O=C(Nc1ccc(C[C@H](NC(=O)[C@@H]2CCCN2C(=O)CCc2ccccc2)C(=O)O)cc1)c1ccnc2ccccc12`, in that order: 65% and 8.68.
Turning to `Cc1cc(C)c(C(=O)N[C@@H](Cc2ccc(NC(=O)c3ccnc4ccccc34)cc2)C(=O)O)c(C)c1`, the inhibition in test [1] is 45%.
Turning to `O=C(N[C@@H](Cc1ccc(NC(=O)c2ccnc3ccccc23)cc1)C(=O)O)c1c(F)cccc1F`, in test [1], the inhibition was determined as 64%. The pIC50 in test [2] was 8.77.
`COc1ccc(C2(C(=O)N[C@@H](Cc3ccc(NC(=O)c4ccnc5ccccc45)cc3)C(=O)O)CCCCC2)cc1`: in test [1], the inhibition came to 77%. Also, the pIC50 in test [2] was 8.92.
In the case of `O=C(Nc1ccc(C[C@H](NC(=O)C2(c3ccccc3)CCCC2)C(=O)O)cc1)c1ccccc1C(F)(F)F`, in test [2], the negative-log IC50 (pIC50) is 8.00.
`O=C(Nc1ccc(C[C@H](NC(=O)C2CC2)C(=O)O)cc1)c1ccnc2ccccc12` came in with an inhibition in test [1] of 12%.
With `O=C(Nc1ccc(C[C@H](NC(=O)C2CCC2)C(=O)O)cc1)c1ccnc2ccccc12`, in test [1], the inhibition stood at 17%.
Same read-out and setting: the result for `CCC(C)(C)C(=O)N[C@@H](Cc1ccc(NC(=O)c2ccnc3ccccc23)cc1)C(=O)O` reads 30%.
As to `O=C(Nc1ccc(C[C@H](NC(=O)[C@@H]2CSCN2C(=O)CCc2ccccc2)C(=O)O)cc1)c1ccnc2ccccc12`, the inhibition in test [1] came to 53%. The pIC50 in test [2] was 8.72.
In test [1], `CC1(C)C(C(=O)N[C@@H](Cc2ccc(NC(=O)c3ccnc4ccccc34)cc2)C(=O)O)C1(C)C` displayed an inhibition of 33%.
Molecule `O=C(Nc1ccc(C[C@H](NC(=O)C2(c3ccccc3)CCCC2)C(=O)O)cc1)c1ccccc1` had a pIC50 in test [2] of 7.64.
The molecule `O=C(Nc1ccc(C[C@H](NC(=O)C2(c3ccccc3)CCCCC2)C(=O)O)cc1)c1ccnc2ccccc12` had an inhibition in test [1] of 67%. The pIC50 in test [2] is 8.25.
Regarding `Cc1cccc(C(=O)N[C@@H](Cc2ccc(NC(=O)c3ccnc4ccccc34)cc2)C(=O)O)c1C`, in test [1], the inhibition is 31%.
In the case of `Cc1noc(C)c1C(=O)N[C@@H](Cc1ccc(NC(=O)c2ccnc3ccccc23)cc1)C(=O)O`, the inhibition in test [1] stood at 46%.
The same measure, in the same setting: for `O=C(N[C@@H](Cc1ccc(NC(=O)c2ccnc3ccccc23)cc1)C(=O)O)c1ccccc1F` the value was 42%.
As to `O=C(Nc1ccc(C[C@H](NC(=O)C23CC4CC(CC(C4)C2)C3)C(=O)O)cc1)c1ccnc2ccccc12`, the inhibition in test [1] was 72%. Besides, the pIC50 in test [2] was 8.62.
For the molecule `CC(C)(C)C(=O)N[C@@H](Cc1ccc(NC(=O)c2ccnc3ccccc23)cc1)C(=O)O`, the inhibition in test [1] came out at 23%.
Turning to `O=C(Nc1ccc(C[C@H](NC(=O)C2(c3ccccc3)CCCC2)C(=O)O)cc1)c1cccnc1Oc1ccccc1`, the figures for the pIC50 (at Integrin alpha-4/beta-1; in test [2]) were 5.62 and 8.21, respectively.
`O=C(Nc1ccc(C[C@H](NC(=O)C2(c3ccccc3)CCCC2)C(=O)O)cc1)c1ccnc2ccccc12` (stereo in doubt; 46) [listing 1 of 2 here]: the pIC50 in test [2] was 8.47.
Take `O=C(N[C@@H](Cc1ccc(NC(=O)c2ccnc3ccccc23)cc1)C(=O)O)c1cccnc1Cl`: the inhibition in test [1] is 61%. In test [2], this molecule gave a pIC50 of 8.18.
In the case of `O=C(N[C@@H](Cc1ccc(NC(=O)c2ccnc3ccccc23)cc1)C(=O)O)C(=O)c1ccccc1`, the inhibition in test [1] stood at 13%.
For `O=C(Nc1ccc(C[C@H](NC(=O)C2(c3ccc(Cl)cc3)CCCC2)C(=O)O)cc1)c1ccnc2ccccc12`, the inhibition in test [1] worked out at 53%. The pIC50 in test [2] is 8.19.
With `O=C(Nc1ccc(C[C@H](NC(=O)[C@H]2CCC(=O)N2Cc2ccccc2)C(=O)O)cc1)c1c(Cl)cccc1Cl`, the pIC50 at Integrin alpha-4/beta-1 is 7.92; in test [2], 9.43.
For `C[C@H]1CC[C@@](C)(C(=O)N[C@@H](Cc2ccc(NC(=O)c3ccnc4ccccc34)cc2)C(=O)O)C1(C)C`, the inhibition in test [1] turned out to be 51%. Besides, the pIC50 in test [2] is 8.64.
Molecule `COc1ccc(C2(C(=O)N[C@@H](Cc3ccc(NC(=O)c4ccnc5ccccc45)cc3)C(=O)O)CCCC2)cc1` returned an inhibition in test [1] of 73%. The same molecule gave a pIC50 in test [2] of 8.85.
As to `O=C(Nc1ccc(C[C@H](NC(=O)C2(c3ccccc3)CCCC2)C(=O)O)cc1)c1ccnc2ccccc12` (stereo in doubt; 46) [listing 2 of 2 here], in test [1], the inhibition came out at 68%.
Same read-out and setting: for `O=C(CCc1ccccc1)N[C@@H](Cc1ccc(NC(=O)c2ccnc3ccccc23)cc1)C(=O)O` the value was 12%.
As to `O=C(Nc1ccc(C[C@H](NC(=O)C2(c3ccccc3)CCCC2)C(=O)O)cc1)c1nccc2ccccc12`, the negative-log IC50 (pIC50) is 5.89 against Integrin alpha-4/beta-1 and 8.01 in test [2].
As to `CC(C)C(C(=O)N[C@@H](Cc1ccc(NC(=O)c2ccnc3ccccc23)cc1)C(=O)O)c1ccccc1` (some centres undefined), the inhibition in test [1] was 73%. The negative-log IC50 (pIC50) in test [2] was 8.34.
As to `O=C(Nc1ccc(C[C@H](NC(=O)C2(c3ccccc3)CC2)C(=O)O)cc1)c1ccnc2ccccc12`, the inhibition in test [1] is 19%.
Regarding `Cc1cccc(C)c1C(=O)N[C@@H](Cc1ccc(NC(=O)c2c(Cl)cccc2Cl)cc1)C(=O)O`, the negative logarithm of the IC50 (pIC50) on Integrin alpha-4/beta-1 is 7.09; in test [2], 8.92.
Take `Cc1ccc(C2(C(=O)N[C@@H](Cc3ccc(NC(=O)c4ccnc5ccccc45)cc3)C(=O)O)CCCC2)cc1`: the inhibition in test [1] came out at 63%. Further, the pIC50 in test [2] was 8.04.
Regarding `CCC(C(=O)N[C@@H](Cc1ccc(NC(=O)c2ccnc3ccccc23)cc1)C(=O)O)c1ccccc1` (some centres undefined), the inhibition in test [1] worked out at 49%. The molecule also gave a pIC50 in test [2] of 8.24.

By inhibition is commonly meant the drop in the measured response relative to a control, in per cent. Lower therefore signals a response near the control. The pIC50 is the IC50 on a negative log10 scale, so that one unit is a factor of ten. Read a high pIC50 as a small IC50.
